Reference: ChEMBL document CHEMBL1146486, “Biologically active compounds from Aphyllophorales (polypore) fungi” (J Nat Prod, 2004)
≈ marks a conversion by molar mass, not a printed value.

Legend:
[1] = target: Transient receptor potential cation channel subfamily V member 1 (Homo sapiens, UniProt Q8NER1); assay: Inhibition of Vanilloid receptor 1
[2] = Inhibition of lipid peroxidation; format: functional
[3] = Inhibition of pig brain phospholipase; parameters: species or system Sus scrofa
Bacillus cereus = assay: Antimicrobial activity against Bacillus cereus; format: functional
Leuconostoc = assay: Antimicrobial activity against Leuconostoc plantarum; format: functional
Staphylococcus aureus = assay: Antimicrobial activity against Staphylococcus aureus; format: functional
Micrococcus = assay: Antimicrobial activity against Micrococcus flavus; format: functional
Bacillus anthracis = assay: Antimicrobial activity against Bacillus anthracis; format: functional
[4] = Inhibition of almond beta-glucosidase; parameters: species or system Prunus dulcis
[5] = Cytotoxicity against human KATO III cells; format: functional, cell-based, KATO III cell
Amylomyces rouxii = assay: Antimicrobial activity against Mucor rouxii; format: functional
L929 = assay: Cytotoxicity against mouse L929 cells; format: cell-based
Aspergillus flavus = assay: Antimicrobial activity against Aspergillus flavus; format: functional
Aspergillus niger = assay: Antimicrobial activity against Aspergillus niger; format: functional
MDCK = assay: Cytotoxicity against MDCK cells; format: cell-based; settings: Canis lupus familiaris
HeLa = assay: Cytotoxicity against human HeLa cells; format: functional, cell-based
[6] = Cytotoxicity against human FL cells; format: functional, cell-based
Protease = Protease (Human immunodeficiency virus 1, UniProt Q9YQ12); assay: Inhibition of HIV1 protease
Protease, sequence (Q9YQ12 whole entry): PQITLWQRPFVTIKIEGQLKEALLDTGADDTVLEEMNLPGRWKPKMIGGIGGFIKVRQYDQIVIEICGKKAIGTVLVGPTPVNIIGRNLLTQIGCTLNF

[7] = Cytotoxicity against mouse Meth-A cells; format: functional; settings: read-out: ED50 (the source's name)
CCRF S-180 = assay: Cytotoxicity against mouse S180 cells; format: functional; settings: read-out: ED50 (the source's name)
T47D = assay: Cytotoxicity against human T47D cells; format: functional; settings: read-out: ED50 (the source's name)
[8] = Cytotoxicity against mouse LLC cells; format: functional; settings: Lewis lung carcinoma, read-out: ED50 (the source's name)
Arthrobacter citreus = assay: Antimicrobial activity against Arthrobacter citreus; format: functional
Micrococcus luteus = assay: Antimicrobial activity against Sarcina lutea; format: functional
Bacillus subtilis = assay: Antimicrobial activity against Bacillus subtilis; format: functional
Kocuria rosea = assay: Antimicrobial activity against Micrococcus roseus; format: functional
[9] = test system: Clavibacter michiganensis subsp. insidiosus; assay: Antimicrobial activity against Corynebacterium insidiosum; format: functional
[10] = Toxicity in mouse at 225 mg/kg; format: organism-based; parameters: dose 225 mg/kg; settings: in vivo
[11] = Inhibition of DNA synthesis in human ECA cells assessed as blockade of thymidine incorporation; format: functional, cell-based
Alternaria = assay: Antimicrobial activity against Alternaria; format: functional
[12] = Inhibition of NF-kappaB by secreted alkaline phosphatase based reporter gene assay
[13] = Antiplatelet activity assessed as inhibition of ADP-stimulated human platelet aggregation; format: functional
[14] = Antiplatelet activity assessed as inhibition of ADP-stimulated bovine platelet aggregation; format: functional; settings: Bos taurus
L1210 = assay: Cytotoxicity against mouse L1210 cells; format: functional, cell-based
HL-60 = assay: Cytotoxicity against human HL60 cells
Liver microsomes = assay: Antioxidant activity in rat liver microsomes assessed as inhibition of lipid peroxidation; format: functional, Microsome

Transient receptor potential cation channel subfamily V member 1, sequence (Q8NER1 whole entry): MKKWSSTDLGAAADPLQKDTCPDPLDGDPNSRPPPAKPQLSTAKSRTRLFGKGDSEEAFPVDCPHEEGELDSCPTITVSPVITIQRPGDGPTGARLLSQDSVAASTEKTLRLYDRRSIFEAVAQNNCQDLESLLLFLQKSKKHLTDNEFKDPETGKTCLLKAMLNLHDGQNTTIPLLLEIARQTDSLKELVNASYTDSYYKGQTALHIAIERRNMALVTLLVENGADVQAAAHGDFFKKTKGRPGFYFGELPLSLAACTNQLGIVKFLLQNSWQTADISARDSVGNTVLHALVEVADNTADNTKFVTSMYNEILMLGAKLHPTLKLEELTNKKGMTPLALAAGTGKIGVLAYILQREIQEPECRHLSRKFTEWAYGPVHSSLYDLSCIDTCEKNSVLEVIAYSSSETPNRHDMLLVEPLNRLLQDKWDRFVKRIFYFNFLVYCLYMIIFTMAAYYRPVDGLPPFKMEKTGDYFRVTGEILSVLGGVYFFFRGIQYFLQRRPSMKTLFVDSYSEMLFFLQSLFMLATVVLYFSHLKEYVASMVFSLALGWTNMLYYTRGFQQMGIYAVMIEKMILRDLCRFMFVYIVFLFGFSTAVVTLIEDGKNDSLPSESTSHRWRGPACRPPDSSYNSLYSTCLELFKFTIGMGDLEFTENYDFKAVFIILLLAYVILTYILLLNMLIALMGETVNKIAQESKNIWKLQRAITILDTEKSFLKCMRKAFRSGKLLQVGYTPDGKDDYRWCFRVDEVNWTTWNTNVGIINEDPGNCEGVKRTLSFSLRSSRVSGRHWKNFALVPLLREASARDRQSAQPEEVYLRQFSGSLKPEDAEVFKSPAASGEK

Cc1cc(O)c(C[C@@H]2[C@@]3(C)CCCC(C)(C)[C@@H]3CC[C@@]2(C)O)c(O)c1 [ALBACONOL]
IC50 [1]: 5 µM

COC1=C(c2ccccc2)C(=O)C(OC)=C(c2ccccc2)C1=O [BETULINAN A]
IC50 [2]: 0.46 µg/mL (≈ 1.44 µM)

COC1=C(c2ccccc2)C(=O)C2=C(C1=O)c1ccccc1CO2 [BETULINAN B]
IC50 [2]: 2.88 µg/mL (≈ 9.05 µM)

CC(=O)O[C@@H]1[C@H](O[C@H](CO)[C@H](O)[C@@H](O)[C@@H](OC(C)=O)C(=O)O[C@H](C)CCCCCCCCCCCCCCCc2cccc(O)c2C(=O)O)O[C@H](CO)[C@@H](O)[C@@H]1O [CALOPOROSIDE]
Ki [3]: 10 µg/mL (≈ 12.2 µM)

Nc1c(C(=O)O)c2nc3c(CO)cccc3oc-2cc1=O [CINNABARIN]
MIC (Bacillus cereus): 62.5 µg/mL (≈ 218 µM) | MIC (Leuconostoc): 62.5 µg/mL (≈ 218 µM)

CC1(C)C[C@H]2[C@@H]([C@H]1O)[C@@]1(C)[C@@]3(O[C@@H]3C(=O)[C@@]13CO3)[C@H]2O [CORIOLIN]
MIC (Staphylococcus aureus): 12.5 µg/mL (≈ 44.6 µM) | MIC (Micrococcus): 12.5 µg/mL (≈ 44.6 µM) | MIC (Bacillus anthracis): 12.5 µg/mL (≈ 44.6 µM)

OC[C@@H]1[C@@H](O)[C@H](O)[C@@H](O)[C@@H]2O[C@H]12 [CYCLOPHELLITOL]
IC50 [4]: 0.8 µg/mL (≈ 4.54 µM)

OCCCc1ccc2oc(-c3ccc4c(c3)OCO4)cc2c1 [DEMETHOXYEGONOL]
IC50 [5]: 27.5 µg/mL (≈ 92.8 µM)

C=C1C(=O)[C@H]2O[C@]23C[C@H]2CC(C)(C)C[C@H]2[C@]13C [DESOXYHYPNOPHILIN]
MIC (Bacillus cereus): 1 µg/mL (≈ 4.3 µM) | MIC (Amylomyces rouxii): 1 µg/mL (≈ 4.3 µM) | IC50 (L929): 2.4 µg/mL (≈ 10.3 µM) | MIC (Aspergillus flavus): 1 µg/mL (≈ 4.3 µM) | MIC (Aspergillus niger): 1 µg/mL (≈ 4.3 µM)

COc1cc(CCCO[C@@H]2O[C@H](CO)[C@@H](O)[C@H](O)[C@H]2O)cc2cc(-c3ccc4c(c3)OCO4)oc12 [EGONOL GLUCOSIDE]
IC50 [5]: 24.9 µg/mL (≈ 51 µM)

COc1cc(CCCO)cc2cc(-c3ccc4c(c3)OCO4)oc12 [EGONOL]
IC50 [5]: 28.8 µg/mL (≈ 88.2 µM)

O=Cc1ccc(O)c(O)c1C=O [FOMECIN B]
IC50 (MDCK): 14 µg/mL (≈ 84.3 µM) | IC50 (HeLa): 20 µg/mL (≈ 120 µM) | IC50 [6]: 17 µg/mL (≈ 102 µM)

C/C(=C\CC[C@@H](C)[C@H]1CC(=O)[C@@]2(C)C3=C(C(=O)C[C@]12C)[C@@]1(C)CC[C@H](O)C(C)(C)[C@@H]1C[C@@H]3O)C(=O)O [GANODERIC ACID BETA]
IC50 (Protease): 20 µM

C=C1[C@@H](O)[C@H]2O[C@]23C[C@H]2CC(C)(C)[C@H](O)[C@H]2[C@]13C [HYPNOPHILIN 1]
IC50 (L929): 0.9 µg/mL (≈ 3.6 µM)

C=C1C(=O)[C@H]2O[C@]23C[C@H]2CC(C)(C)[C@H](O)[C@H]2[C@]13C [HYPNOPHILIN]
MIC (Bacillus cereus): 1 µg/mL (≈ 4.03 µM) | MIC (Amylomyces rouxii): 1 µg/mL (≈ 4.03 µM) | MIC (Aspergillus flavus): 1 µg/mL (≈ 4.03 µM) | MIC (Aspergillus niger): 1 µg/mL (≈ 4.03 µM)

C=C(CC[C@@H](C)[C@H]1CC[C@@]2(C)C3=C(CC[C@]12C)[C@@]1(C)CC[C@H](O)C(C)(C)C1CC3=O)C(C)C=O (stereo partly specified) [LUCIALDEHYDE C]
EC50 [7]: 3.8 µg/mL (≈ 8.11 µM) | EC50 (CCRF S-180): 7.1 µg/mL (≈ 15.1 µM) | EC50 (T47D): 4.7 µg/mL (≈ 10 µM) | EC50 [8]: 10.7 µg/mL (≈ 22.8 µM)

CCCCCCCC/C=C\CCCCCCCc1cc(O)cc(O)c1C(=O)O [MERULINIC ACID A]
MIC (Arthrobacter citreus): 0.4 µg/mL (≈ 1.02 µM) | MIC (Micrococcus luteus): 0.4 µg/mL (≈ 1.02 µM) | MIC (Bacillus subtilis): 0.4 µg/mL (≈ 1.02 µM) | MIC (Kocuria rosea): 0.4 µg/mL (≈ 1.02 µM) | MIC [9]: 0.4 µg/mL (≈ 1.02 µM)

CC(O)CCCCCC/C=C\CCCCCCCc1cccc(O)c1C(=O)O (stereo unspecified) [MERULINIC ACID B]
MIC (Arthrobacter citreus): 0.4 µg/mL (≈ 1.02 µM) | MIC (Micrococcus luteus): 0.4 µg/mL (≈ 1.02 µM) | MIC (Bacillus subtilis): 0.4 µg/mL (≈ 1.02 µM) | MIC (Kocuria rosea): 0.4 µg/mL (≈ 1.02 µM) | MIC [9]: 0.4 µg/mL (≈ 1.02 µM)

CCCCCCCC/C=C\CCCCCCCc1cccc(O)c1C(=O)O [MERULINIC ACID C]
MIC (Arthrobacter citreus): 0.4 µg/mL (≈ 1.07 µM) | MIC (Micrococcus luteus): 0.4 µg/mL (≈ 1.07 µM) | MIC (Bacillus subtilis): 0.4 µg/mL (≈ 1.07 µM) | MIC (Kocuria rosea): 0.4 µg/mL (≈ 1.07 µM) | MIC [9]: 0.4 µg/mL (≈ 1.07 µM)

C=C1C(=O)[C@H](OC(C)=O)/C=C(\C)C(=O)[C@H](O)[C@@H]2[C@@H]1CC2(C)C [NAEMATOLON]
LD50 [10]: 225 mg/kg | IC50 [11]: 2 µg/mL (≈ 6.53 µM)

Cc1oc(=O)c2c(O)cccc2c1C [OOSPOLACTONE]
MIC (Alternaria): 12.5 µg/mL (≈ 65.7 µM)

CC(C)=C[C@H](O)C1=C[C@@H](O)[C@@H]2O[C@@H]2C1=O [PANEPOXYDONE]
IC50 [12]: 1.5 µg/mL (≈ 7.14 µM)

CC1(C)CCC(=O)[C@@H]2[C@@H](C=O)C(C=O)=CC[C@@H]21 [PANUDIAL]
IC30 [13]: 6 µg/mL (≈ 25.6 µM) | IC30 [14]: 2.5 µg/mL (≈ 10.7 µM)

CC(C)C(C)C[C@@H](O)[C@](C)(O)[C@H]1CC[C@@]2(O)C3=CC(=O)[C@@H]4C[C@@H](O)[C@@H](O)C[C@]4(C)[C@H]3CC[C@]12C (stereo partly specified) [POLYPORUSTERONE A]
IC50 (L1210): 10 µg/mL (≈ 20.9 µM)

C=C(C[C@@H](O)[C@](C)(O)[C@H]1CC[C@@]2(O)C3=CC(=O)[C@@H]4C[C@@H](O)[C@@H](O)C[C@]4(C)[C@H]3CC[C@]12C)C(C)C [POLYPORUSTERONE B]
IC50 (L1210): 10 µg/mL (≈ 21 µM)

CC(C)C(C)C1O[C@H]1[C@](C)(O)[C@H]1CC[C@@]2(O)C3=CC(=O)[C@@H]4C[C@@H](O)[C@@H](O)C[C@]4(C)[C@H]3CC[C@]12C (stereo partly specified) [POLYPORUSTERONE C]
IC50 (L1210): 10 µg/mL (≈ 21 µM)

C=C([C@H](O)C[C@H](C)C(C)C)[C@H]1CC[C@@]2(O)C3=CC(=O)[C@@H]4C[C@@H](O)[C@@H](O)C[C@]4(C)[C@H]3CC[C@]12C [POLYPORUSTERONE D]
IC50 (L1210): 10 µg/mL (≈ 21.7 µM)

CC(C)[C@@H](C)[C@@H]1O[C@H]1[C@@H](C)[C@H]1CC[C@@]2(O)C3=CC(=O)[C@@H]4C[C@@H](O)[C@@H](O)C[C@]4(C)[C@H]3CC[C@]12C [POLYPORUSTERONE E]
IC50 (L1210): 10 µg/mL (≈ 21.7 µM)

CC(C)[C@@H](C)C[C@@H](O)[C@@H](C)[C@H]1CC[C@@]2(O)C3=CC(=O)[C@@H]4C[C@@H](O)[C@@H](O)C[C@]4(C)[C@H]3CC[C@]12C [POLYPORUSTERONE F]
IC50 (L1210): 10 µg/mL (≈ 21.6 µM)

C=C(C[C@@H](O)[C@@H](C)[C@H]1CC[C@@]2(O)C3=CC(=O)[C@@H]4C[C@@H](O)[C@@H](O)C[C@]4(C)[C@H]3CC[C@]12C)C(C)C [POLYPORUSTERONE G]
IC50 (L1210): 10 µg/mL (≈ 21.7 µM)

C=C(C)[C@@H]1CCC2=C(CC[C@]3(C)[C@@H]([C@@H](CCC=C(C)C)C(=O)O)[C@H](O)C[C@@]23C)[C@@]1(C)CCC(=O)O [PORICOIC ACID G]
GI50 (HL-60): 0.0393 µM

CC1(C)C=Cc2ccc(O[C@@H]3O[C@H](CO)[C@@H](O)[C@H]3O)cc2O1 [STERIN A]
IC50 (Liver microsomes): 8 µg/mL (≈ 25.9 µM)
